# Laboratory results reported in patent publication US20220305051A1 (priority 2019, published 2022).
# Legend:
# oral NR activity [1] = test system: oral NR activity; set-up: species or system mice; conditions: mouse, in vivo
# [2] = test system: tongue and lung microbiome; set-up: species or system mice; conditions: mouse, in vivo
# [3] = test system: C57bl/6 mice exposed to Cl2, Br2 or COCl2; conditions: mouse, in vivo
# [4] = set-up: species or system mice; conditions: mouse, in vivo
# oral NR activity [5] = test system: oral NR activity; set-up: species or system mice; conditions: mouse, in vivo; remark: listed apart in the source
# [6] = test system: C57bl/6 mice exposed to Br2; conditions: mouse, in vivo
# P. Aeruginosa = test system: P. Aeruginosa; set-up: species or system mice; conditions: mouse, in vivo
# [7] = test system: C57bl/6 mice exposed to Br2; conditions: mouse, in vivo; remark: listed apart in the source
# [8] = mouse, in vivo
molecule,measurement,setting,value
bromine [Br2],Bacterial number (CFU),oral NR activity [1],not different
same,NR activity normalized per bacterial number,oral NR activity [1],significantly inhibited
[H]/N=C(\N/C(=N/[H])NCCCCCCNC(=N)NC(=N)Nc1ccc(Cl)cc1)Nc1ccc(Cl)cc1 [chlorhexidine],Decrease in abundance of 7 bacteria on the tongue,[2],> 50%
same,Decrease of the one altered bacterial species in the lung microbiome,[2],~30%
same,Increase in severity of Br2 and COCl2 lung injury,[3],1.5-2.5 fold
same,Increase in severity of Cl2 lung injury,[3],close to significant effects
same,"Lung injury, chlorhexidine alone",[3],no effect on lung injury
same,Decrease of plasma nitrite,[4],50%
same,Inhibition of NR activity,oral NR activity [5],~70%
"O=NO [nitrite, sodium nitrite]",Survival over 10 days (Kaplan Meier),[6],improved survival early
same,Protection against ALI and P. aeruginosa infection,P. Aeruginosa,protects against ALI and P. aeruginosa infection
same,Susceptibility to P. aeruginosa infection (bacterial burden in lung homogenates),P. Aeruginosa,decreases susceptibility to P. aeruginosa infection
same,Decrease of BAL neutrophil,[7],50%
O=[N+]([O-])O [nitrate],Plasma nitrite and cGMP,[8],will temporally increase plasma nitrite and cGMP
same,Plasma nitrite levels,[8],increase
"hemopexin: a heme-scavenger; scavenges free heme (protein, UniProt P02790 24-462, looked up) Hemopexin: TPLPPTSAHGNVAEGETKPDPDVTERCSDGWSFDATTLDDNGTMLFFKGEFVWKSHKWDRELISERWKNFPSPVDAAFRQGHNSVFLIKGDKVWVYPPEKKEKGYPKLLQDEFPGIPSPLDAAVECHRGECQAEGVLFFQGDREWFWDLATGTMKERSWPAVGNCSSALRWLGRYYCFQGNQFLRFDPVRGEVPPRYPRDVRDYFMPCPGRGHGHRNGTGHGNSTHHGPEYMRCSPHLVLSALTSDNHGATYAFSGTHYWRLDTSRDGWHSWPIAHQWPQGPSAVDAAFSWEEKLYLVQGTQVYVFLTKGGYTLVSGYPKRLEKEVGTPHGIILDSVDAAFICPGSSRLHIMAGRRLWWLDLKSGAQATWTELPWPHEKVDGALCMEKSLGPNSCSANGPGLYLIHGPNLYCYSDVEKLNAAKALPQPQNVTSLLGCTH",Survival over 10 days (Kaplan Meier),[6],improved survival
same,Protection against ALI and P. aeruginosa infection,P. Aeruginosa,protects against ALI and P. aeruginosa infection
